Patent publication US20230278972A1, “SUBSTITUTED HALOALKYL SULFONANILIDE HERBICIDES” (FMC Corporation, priority 2020, published 2023)

Assays:
Format in all cases: in vivo
[1] = system: corn (Zea mays); assay: Test A1 preemergence, corn
Procedure, shortened: (§1)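 Seeds were first planted into a blend of loam soil and sand and given a preemergence directed soil spray. In parallel, pots of the same soil were sown for postemergence application once plants reached 2 to 10 cm and the one- to two-leaf stage. Both used surfactant-containing non-phytotoxic solvent formulations.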

[2] = system: Pigweed, Palmer (palmer amaranth, palmer pigweed, Amaranthus palmeri); assay: Test A1 preemergence, Pigweed, Palmer
Procedure, shortened: as §1

[3] = system: Ryegrass, Italian (Italian ryegrass, Lolium multiflorum); assay: Test A1 preemergence, Ryegrass, Italian
Procedure, shortened: as §1

[4] = system: wheat (Triticum aestivum); assay: Test A1 postemergence, wheat; conditions: for Wheat plant response rating: postemergence; for Plant response rating, Wheat: Postemergence
Procedure, shortened: (§2)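 Plants grown in pots of loam/sand mix; preemergence = soil-directed spray on seeded pots, postemergence = spray at 1–2 leaves, height 2–10 cm; test chemicals formulated in non-phytotoxic solvent with surfactant.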

[5] = system: horseweed (Erigeron canadensis); assay: Test A1 postemergence, horseweed; conditions: for Plant response rating, Horseweed: Postemergence; for Horseweed plant response rating: postemergence
Procedure, shortened: as §2

[6] = 31 g ai/ha, 0 to 100 scale (0 no effect, 100 complete control)
[7] = 125 g ai/ha, 0 to 100 scale, 0 no effect, 100 complete control
[8] = 31 g ai/ha, 0 to 100 scale (0 no effect, 100 complete control), 10 days
[9] = 125 g ai/ha, 0 to 100 scale (0 no effect, 100 complete control), 10 days
[10] = 500 g ai/ha, 0 to 100 scale (0 no effect, 100 complete control)

Structure (SMILES)	Plant response rating, Corn [1, 6]	Plant response rating, Corn [1, 7]	Plant response rating, Pigweed, Palmer [2, 6]	Plant response rating, Pigweed, Palmer [2, 7]	Plant response rating, Ryegrass, Italian [3, 6]	Plant response rating, Ryegrass, Italian [3, 7]	Wheat plant response rating [4, 6]	Plant response rating, Wheat ([4]; 125 g ai/ha, 0 to 100 scale)	Plant response rating, Horseweed [5, 8]	Plant response rating, Horseweed ([5]; 125 g ai/ha, 0 to 100 scale)	Plant response rating, Wheat [4, 8]	Horseweed plant response rating [5, 6]	Plant response rating, Horseweed [5, 9]	Plant response rating, Wheat [4, 9]	Plant response rating, Corn [1, 10]	Plant response rating, Pigweed, Palmer [2, 10]	Plant response rating, Ryegrass, Italian [3, 10]	Plant response rating, Wheat ([4]; 500 g ai/ha, 0 to 100 scale)
Cc1c(C(=O)N2C[C@@H](C)O[C@H](C)C2)cc(N(COC(=O)C(C)(C)C)S(=O)(=O)C(F)(F)F)c(C)c1C (relative stereo) [Compound 373]	0	20	20	40	0	0	0	70										
CCOC(=O)N(c1cc(C(=O)N2C[C@@H](C)O[C@H](C)C2)c(C)c(C)c1C)S(=O)(=O)C(F)(F)F (relative stereo) [Compound 374]	20	40	60	80	0	90	20	50										
Cc1c(NS(=O)(=O)C(F)(F)F)cc(C(=O)N2CCSCC2)c(C)c1C [Compound 283]	0	10	10	50	0	0		50	70	80	10							
Cc1c(C(=O)N2CCSCC2)cc(N(COC(=O)C(C)(C)C)S(=O)(=O)C(F)(F)F)c(C)c1C [Compound 285]	0	10	10	20	0	0		20	70	80	10							
CCOC(=O)N(c1cc(C(=O)N2CCSCC2)c(C)c(C)c1C)S(=O)(=O)C(F)(F)F [Compound 286]	0	0	50	70	0	0		20	0	60	0							
Cc1c(NS(=O)(=O)C(F)(F)F)cc(C(=O)N2CCC(C)CC2)c(C)c1C [Compound 366]	0	10	100	100	0	40	0	20										
COC1CCN(C(=O)c2cc(NS(=O)(=O)C(F)(F)F)c(C)c(C)c2C)CC1 [Compound 367]	10	90	80	100	0	20	0	20										
Cc1c(C(=O)N2CCC(C)CC2)cc(N(COC(=O)C(C)(C)C)S(=O)(=O)C(F)(F)F)c(C)c1C [Compound 369]	0	0	0	50	40	40	0	20										
COC1CCN(C(=O)c2cc(N(COC(=O)C(C)(C)C)S(=O)(=O)C(F)(F)F)c(C)c(C)c2C)CC1 [Compound 370]	0	0	30	70	30	30	10	20										
C#CCN(C)C(=O)c1cc(N(COC(=O)C(C)(C)C)S(=O)(=O)C(F)(F)F)c(C)c(C)c1C [Compound 371]	0	90	10	80	0	80	0	60										
Cc1cc(C)c(C2=NOC3OCCCC23)cc1NS(=O)(=O)C(F)(F)F (stereo not shown) [Compound 372]	0	10	40	90	40	90	10	70				0						
CCC1CC(c2cc(NS(=O)(=O)C(F)(F)F)c(C)cc2C)=NO1 (stereo not shown) [Compound 375]	0	70	0	80	30	80	0	70		50								
CCC1CC(c2cc(N(COC(=O)C(C)(C)C)S(=O)(=O)C(F)(F)F)c(C)cc2C)=NO1 (stereo not shown) [Compound 376]	0	0	0	40	0	30	10	40		0		0						
Cc1ccc(C2=NOC3CCCC23)cc1NS(=O)(=O)C(F)(F)F (stereo not shown) [Compound 377]	0	0	0	0	0	40	0	20		80		30						
CCc1cc(C)c(N(COC(=O)C(C)(C)C)S(=O)(=O)C(F)(F)F)cc1C1=NOC2CCCC12 (stereo not shown) [Compound 378]	0	0	0	20	0	40	30	60		90		0						
CCOC(=O)N(c1cc(C2=NOC3CCCC23)c(CC)cc1C)S(=O)(=O)C(F)(F)F (stereo not shown) [Compound 379]	0	0			0	40	20	70		50		0						
Cc1c(NS(=O)(=O)C(F)(F)F)cc(C2=NOC3(CCCC3)C2)c(C)c1C [Compound 380]	0	30	30	40	60	100	0					30	80	80				
Cc1cc(C)c(N(COC(=O)C(C)(C)C)S(=O)(=O)C(F)(F)F)cc1N1CCC2(CCC(F)(F)CC2)C1=O [Compound 397]		10		90		100								60	60	100	100	70
